Test results: patent US11591336B2 (Relay Therapeutics, Inc., priority 2017, dated 2023)
Structures can show the parent of a compound that is named as a salt.

What follows are compounds tested against SHP2 (Homo sapiens (Human), UniProt Q06124) (assay: SHP2 Allosteric Inhibition Assay (DiFMUP prompt fluorescence)). Conditions: 0.25 nM SHP2 activated with 0.5 μM peptide IRS1_pY1172(dPEG8)pY1222; substrate DiFMUP 100 μM; 25° C.
Chain of SHP2 (Q06124 whole entry): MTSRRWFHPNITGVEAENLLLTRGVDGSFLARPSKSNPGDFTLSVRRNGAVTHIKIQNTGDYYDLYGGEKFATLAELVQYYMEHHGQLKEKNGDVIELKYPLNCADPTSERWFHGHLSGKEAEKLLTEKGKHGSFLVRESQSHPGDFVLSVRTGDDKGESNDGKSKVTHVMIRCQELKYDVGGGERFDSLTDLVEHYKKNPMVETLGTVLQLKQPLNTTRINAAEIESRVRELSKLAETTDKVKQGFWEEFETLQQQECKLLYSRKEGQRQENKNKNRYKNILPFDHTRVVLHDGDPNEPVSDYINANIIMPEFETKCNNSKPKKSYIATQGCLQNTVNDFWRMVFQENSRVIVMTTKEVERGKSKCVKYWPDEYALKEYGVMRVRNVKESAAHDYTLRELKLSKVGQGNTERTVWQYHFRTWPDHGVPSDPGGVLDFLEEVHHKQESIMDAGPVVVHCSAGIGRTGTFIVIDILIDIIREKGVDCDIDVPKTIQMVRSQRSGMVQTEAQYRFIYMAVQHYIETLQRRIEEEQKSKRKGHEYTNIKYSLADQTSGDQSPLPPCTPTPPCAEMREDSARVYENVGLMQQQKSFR
Assay type: biochemical
Compound `C[C@@H]1C[C@@H](N)CCN1c1cnc2c(N3CCCc4ncccc43)n[nH]c2n1` (stereo in doubt) [Compound 74, rac-(2R,4S)-1-(3-(3,4-dihydro-1,5-naphthyridin-1(2H)-yl)-1H-pyrazolo[3,4-b]pyrazin-6-yl)-2-methylpiperidin-4-amine] has an IC50 of under 1000 nM. `N[C@@H]1CCC[C@]12CCN(c1cnc3c(N4CCCc5ncccc54)n[nH]c3n1)C2` (stereo in doubt) [Compound 204, rel-(5R,6R)-2-(3-(3,4-dihydro-1,5-naphthyridin-1(2H)-yl)-1H-pyrazolo[3,4-b]pyrazin-6-yl)-2-azaspiro[4.4]nonan-6-amine] showed an IC50 of 1000 to 10000 nM. `N[C@H]1CCC[C@@]12CCN(c1cnc3c(N4CCCc5ncccc54)n[nH]c3n1)C2` (stereo in doubt) [Compound 205, rel-(5S,6S)-2-(3-(3,4-dihydro-1,5-naphthyridin-1(2H)-yl)-1H-pyrazolo[3,4-b]pyrazin-6-yl)-2-azaspiro[4.4]nonan-6-amine] showed an IC50 of 1000 to 10000 nM. `CC1CCN(c2n[nH]c3nc(N4CCC5(CC4)CO[C@@H](C)[C@H]5N)cnc23)c2ccc(C(N)=O)nc21` (stereo in doubt) [Compound 264, (8S)-5-{6-[(3S,4S)-4-amino-3-methyl-2-oxa-8-azaspiro[4.5]decan-8-yl]-1H-pyrazolo[3,4-b]pyrazin-3-yl}-8-methyl-5,6,7,8-tetrahydro-1,5-naphthyridine-2-carboxamide] gave an IC50 of under 1000 nM. `CC1CCN(c2n[nH]c3nc(N4CCC5(CC4)CO[C@@H](C)[C@H]5N)cnc23)c2ccc(C(N)=O)nc21` (stereo in doubt) [Compound 265, (8R)-5-{6-[(3S,4S)-4-amino-3-methyl-2-oxa-8-azaspiro[4.5]decan-8-yl]-1H-pyrazolo[3,4-b]pyrazin-3-yl}-8-methyl-5,6,7,8-tetrahydro-1,5-naphthyridine-2-carboxamide] was tested, and the IC50 was under 1000 nM. For `COCCNC(=O)c1ccc2c(n1)C(C)CCN2c1n[nH]c2nc(N3CCC4(CC3)CO[C@@H](C)[C@H]4N)cnc12` (stereo in doubt) [Compound 437, (8S)-5-(6-[(3S,4S)-4-amino-3-methyl-2-oxa-8-azaspiro[4.5]decan-8-yl]-1H-pyrazolo[3,4-b]pyrazin-3-yl)-N-(2-methoxyethyl)-8-methyl-5,6,7,8-tetrahydro-1,5-naphthyridine-2-carboxamide hydrochloride], the IC50 was under 1000 nM. Compound `N[C@@H]1CC(O)CC12CCN(c1cnc3c(N4CCCc5ncccc54)n[nH]c3n1)CC2` (stereo in doubt) [Compound 468, (2R,4R)-4-amino-8-(3-(3,4-dihydro-1,5-naphthyridin-1(2H)-yl)-1H-pyrazolo[3,4-b]pyrazin-6-yl)-8-azaspiro[4.5]decan-2-ol] has an IC50 of under 1000 nM. For `NC1CCCC12CCN(c1cnc3c(Sc4cccnc4C(F)(F)F)n[nH]c3n1)CC2` (stereo in doubt) [Compound 476, (S)-8-(3-((2-(trifluoromethyl)pyridin-3-yl)thio)-1H-pyrazolo[3,4-b]pyrazin-6-yl)8-azaspiro[4.5]decan-1-amine], the IC50 was under 1000 nM. `Cn1nc(Sc2ccncc2)c2ncc(N3CCC(C)(N)CC3)nc21` [Cmpd 487] was tested, and the IC50 was at least 10000 nM. `CC1CNCC(Sc2n[nH]c3nc(N4CCC(C)(N)CC4)cnc23)C1` (stereo not shown) [Cmpd 490] was tested, and the IC50 was at least 10000 nM. `CC1(CN)CCN(c2cnc3c(Sc4ccccc4)n[nH]c3n2)CC1` [Compound 7, (4-methyl-1-(3-(phenylthio)-1H-pyrazolo[3,4-b]pyrazin-6-yl)piperidin-4-yl)methanamine] gave an IC50 of under 1000 nM. `CC1(N)CCN(c2cnc3c(Sc4cccnc4C(F)(F)F)n[nH]c3n2)CC1` [Compound 8, 4-methyl-1-(3-((2-(trifluoromethyl)pyridin-3-yl)thio)-1H-pyrazolo[3,4-b]pyrazin-6-yl)piperidin-4-amine] was tested, and the IC50 was under 1000 nM. For `CC1(CN)CCN(c2cnc3c(Sc4ccccc4Cl)n[nH]c3n2)CC1` [Compound 9, (1-(3-((2-chlorophenyl)thio)-1H-pyrazolo[3,4-b]pyrazin-6-yl)-4-methylpiperidin-4-yl)methanamine], the IC50 was under 1000 nM. Compound `CC1(N)CCN(c2cnc3c(Sc4ccccc4C#N)n[nH]c3n2)CC1` [Compound 10, 2-((6-(4-amino-4-methylpiperidin-1-yl)-1H-pyrazolo[3,4-b]pyrazin-3-yl)thio)benzonitrile] has an IC50 of under 1000 nM. With `CC1(CN)CCN(c2cnc3c(Nc4ccccc4Cl)n[nH]c3n2)CC1` [Compound 11, 6-(4-(aminomethyl)-4-methylpiperidin-1-yl)-N-(2-chlorophenyl)-1H-pyrazolo[3,4-b]pyrazin-3-amine] the IC50 was under 1000 nM. Compound `CC1(N)CCN(c2cnc3c(Nc4cccnc4Cl)n[nH]c3n2)CC1` [Compound 12, 6-(4-amino-4-methylpiperidin-1-yl)-N-(2-chloropyridin-3-yl)-1H-pyrazolo[3,4-b]pyrazin-3-amine] has an IC50 of 1000 to 10000 nM. Work on `CC1(N)CCN(c2cnc3c(Sc4cccc(Cl)c4Cl)n[nH]c3n2)CC1` [Compound 13, 1-(3-((2,3-dichlorophenyl)thio)-1H-pyrazolo[3,4-b]pyrazin-6-yl)-4-methylpiperidin-4-amine] yielded an IC50 of under 1000 nM. `Cn1ccnc1Sc1n[nH]c2nc(N3CCC(C)(N)CC3)cnc12` [Compound 14, 4-methyl-1-(3-((1-methyl-1H-imidazol-2-yl)thio)-1H-pyrazolo[3,4-b]pyrazin-6-yl)piperidin-4-amine] gave an IC50 of at least 10000 nM. `CC1(CN)CCN(c2cnc3c(Cc4ccccc4)n[nH]c3n2)CC1` [Compound 15, (1-(3-benzyl-1H-pyrazolo[3,4-b]pyrazin-6-yl)-4-methylpiperidin-4-yl)methanamine] was tested, and the IC50 was 1000 to 10000 nM. With `C=C(c1ccccc1)c1n[nH]c2nc(N3CCC(C)(CN)CC3)cnc12` [Compound 16, (4-methyl-1-(3-(1-phenylvinyl)-1H-pyrazolo[3,4-b]pyrazin-6-yl)piperidin-4-yl)methanamine] the IC50 was under 1000 nM. Compound `CC(c1ccccc1)c1n[nH]c2nc(N3CCC(C)(CN)CC3)cnc12` (stereo not shown) [Compound 17, (4-methyl-1-(3-(1-phenylethyl)-1H-pyrazolo[3,4-b]pyrazin-6-yl)piperidin-4-yl)methanamine] has an IC50 of 1000 to 10000 nM. `CC1(CN)CCN(c2cnc3c(C(=O)c4ccccc4)n[nH]c3n2)CC1` [Compound 18, (6-(4-(aminomethyl)-4-methylpiperidin-1-yl)-1H-pyrazolo[3,4-b]pyrazin-3-yl)(phenyl)methanone] showed an IC50 of 1000 to 10000 nM. `CC1(CN)CCN(c2cnc3c(C(C)(O)c4ccccc4)n[nH]c3n2)CC1` (stereo not shown) [Compound 19, 1-(6-(4-(aminomethyl)-4-methylpiperidin-1-yl)-1H-pyrazolo[3,4-b]pyrazin-3-yl)-1-phenylethanol] showed an IC50 of 1000 to 10000 nM. `CC1(N)CCN(c2cnc3c(-n4cnc5ccccc54)n[nH]c3n2)CC1` [Compound 20, 1-(3-(1H-benzo[d]imidazol-1-yl)-1H-pyrazolo[3,4-b]pyrazin-6-yl)-4-methylpiperidin-4-amine] was tested, and the IC50 was 1000 to 10000 nM. Work on `CC1(N)CCN(c2cnc3c(N4CCc5ccccc54)n[nH]c3n2)CC1` [Compound 21] yielded an IC50 of under 1000 nM. Work on `CC1(N)CCN(c2cnc3c(N4CCCn5nccc54)n[nH]c3n2)CC1` [Compound 22] yielded an IC50 of under 1000 nM. Compound `CC1(CN)CCN(c2cnc3c(N4CCCc5ncccc54)n[nH]c3n2)C1` (stereo not shown) [Compound 26, (1-(3-(3,4-dihydro-1,5-naphthyridin-1(2H)-yl)-1H-pyrazolo[3,4-b]pyrazin-6-yl)-3-methylpyrrolidin-3-yl)methanamine dihydrochloride] has an IC50 of under 1000 nM. Work on `CC1(N)CCN(c2cnc3c(N4CCCc5ccncc54)n[nH]c3n2)CC1` [Compound 27] yielded an IC50 of at least 10000 nM. Compound `CC1(N)CCN(c2cnc3c(N4CCNc5ccccc54)n[nH]c3n2)CC1` [Compound 29] has an IC50 of 1000 to 10000 nM. In the case of `CC1(N)CCN(c2cnc3c(N4CCCc5cnccc54)n[nH]c3n2)CC1` [Compound 30], the IC50 is reported as 1000 to 10000 nM. `CC1(N)CCN(c2cnc3c(N4CCOc5ncccc54)n[nH]c3n2)CC1` [Compound 31] gave an IC50 of under 1000 nM. Compound `CC1(N)CCN(c2cnc3c(N4CCC(=O)c5ccccc54)n[nH]c3n2)CC1` [Compound 32] has an IC50 of under 1000 nM. With `CC1(CN)CCN(c2cnc3c(N4CCCc5ccccc54)n[nH]c3n2)CC1` [Compound 33, (1-(3-(3,4-dihydroquinolin-1(2H)-yl)-1H-pyrazolo[3,4-b]pyrazin-6-yl)-4-methylpiperidin-4-yl)methanamine] the IC50 was under 1000 nM. With `CC1CCc2ccccc2N1c1n[nH]c2nc(N3CCC(C)(N)CC3)cnc12` (stereo not shown) [Compound 34] the IC50 was under 1000 nM. In the case of `C[C@H]1CCc2ccccc2N1c1n[nH]c2nc(N3CCC(C)(N)CC3)cnc12` [Compound 35], the IC50 is reported as under 1000 nM. `C[C@@H]1CCc2ccccc2N1c1n[nH]c2nc(N3CCC(C)(N)CC3)cnc12` [Compound 36] showed an IC50 of 1000 to 10000 nM. `CC1Cc2ccccc2N(c2n[nH]c3nc(N4CCC(C)(N)CC4)cnc23)C1` (stereo not shown) [Compound 38] showed an IC50 of 1000 to 10000 nM. `CC1(N)CCN(c2cnc3c(N4C(=O)CCc5ncccc54)n[nH]c3n2)CC1` [Compound 39, 1-(6-(4-amino-4-methylpiperidin-1-yl)-1H-pyrazolo[3,4-b]pyrazin-3-yl)-3,4-dihydro-1,5-naphthyridin-2(1H)-one] gave an IC50 of 1000 to 10000 nM. Compound `CC1(CN)CCN(c2cnc3c(N4CCCc5cccnc54)n[nH]c3n2)CC1` [Compound 40] has an IC50 of 1000 to 10000 nM. `CC1(N)CCN(c2cnc3c(N4CCCc5c4ccnc5N)n[nH]c3n2)CC1` [Compound 42, 1-(6-(4-amino-4-methylpiperidin-1-yl)-1H-pyrazolo[3,4-b]pyrazin-3-yl)-1,2,3,4-tetrahydro-1,6-naphthyridin-5-amine] showed an IC50 of 1000 to 10000 nM. Compound `CC1(N)CCN(c2cnc3c(N4CCCn5c4cccc5=O)n[nH]c3n2)CC1` [Compound 43] has an IC50 of at least 10000 nM. In the case of `Cc1ccc2c(c1)N(c1n[nH]c3nc(N4CCC(C)(CN)CC4)cnc13)CCC2` [Compound 44], the IC50 is reported as 1000 to 10000 nM. In the case of `Cc1ccc2c(c1)CCCN2c1n[nH]c2nc(N3CCC(C)(CN)CC3)cnc12` [Compound 45], the IC50 is reported as under 1000 nM. `Cc1cccc2c1CCCN2c1n[nH]c2nc(N3CCC(C)(CN)CC3)cnc12` [Compound 46] was tested, and the IC50 was under 1000 nM. `CC1(N)CCN(c2cnc3c(N4CCCC(c5ccccc5)C4)n[nH]c3n2)CC1` (stereo not shown) [Compound 47] showed an IC50 of 1000 to 10000 nM. `CC1CCN(c2n[nH]c3nc(N4CCC(C)(CN)CC4)cnc23)c2ccccc21` (stereo not shown) [Compound 48] was tested, and the IC50 was under 1000 nM.
